From patent publication US9695155B2, “Herbicidal substituted pyrimidinyloxy benzene compounds” (E. I. DU PONT DE NEMOURS AND COMPANY, priority 2013, dated 2017)

What was measured:
pigweed [1] = assay: Test A preemergence; assay type: in vivo, Amaranthus retroflexus
Procedure, shortened: (§1)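 Greenhouse pot test, loam/sand soil. Formulation: non-phytotoxic solvent mix plus surfactant. Pre: directed spray onto soil after sowing. Post: plants at 1–2 leaf, 2–10 cm. Rated visually vs untreated controls at ~10 d, 0 (no effect) to 100 (complete control).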

velvetleaf [2] = assay: Test A preemergence; assay type: in vivo, Abutilon theophrasti
Procedure, shortened: as §1

wheat = assay: Test A postemergence; assay type: in vivo, Triticum aestivum; settings: Triticum aestivum, post-emergence, 240 h, read-out: Plant response rating, Wheat
Procedure, shortened: as §1

wild oat = assay: Test C postemergence; assay type: in vivo, Avena fatua; settings: Avena fatua, post-emergence
Procedure, shortened: (§2)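 Seeds are planted in blended loam soil and sand and treated preemergence, while seedlings in a peat moss/vermiculite medium receive postemergence sprays at 2 to 18 cm height. All plants stay in the greenhouse for 13 to 15 days before visual comparison with controls on a 0–100 scale.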

Heteranthera limosa = assay: Test B flooded paddy test; assay type: in vivo; settings: Heteranthera limosa, Flood, 250 g ai/ha; 0 to 100 scale where 0 is no effect and 100 is complete control; read-out: Plant response rating, Ducksalad
Procedure, shortened: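 Seedlings are raised to two leaves, flooded to a depth of 3 cm and dosed by adding the compound to the floodwater. Water level is kept constant, and plants are scored visually versus controls 13–15 days later (0 = no effect, 100 = complete control).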

blackgrass = assay: Test C postemergence; assay type: in vivo, Alopecurus myosuroides; settings: Alopecurus myosuroides, post-emergence
Procedure, shortened: as §2

pigweed [3] = assay: Test C postemergence; assay type: in vivo, Amaranthus retroflexus
Procedure, shortened: as §2

barnyardgrass [4] = assay: Test C postemergence; assay type: in vivo, Echinochloa crus-galli; settings: Echinochloa crus-galli, post-emergence
Procedure, shortened: as §2

ragweed = assay: Test C postemergence; assay type: in vivo, Ambrosia elatior
Procedure, shortened: as §2

morningglory [5] = assay: Test A preemergence; assay type: in vivo, Ipomoea spp.
Procedure, shortened: as §1

kochia = assay: Test C postemergence; assay type: in vivo, Kochia scoparia; settings: Bassia scoparia, post-emergence
Procedure, shortened: as §2

morningglory [6] = assay: Test A postemergence; assay type: in vivo, Ipomoea spp.; settings: Ipomoea, post-emergence, 240 h, read-out: Plant response rating, Morningglory
Procedure, shortened: as §1

barnyardgrass [7] = assay: Test A preemergence; assay type: in vivo, Echinochloa crus-galli
Procedure, shortened: as §1

morningglory [8] = assay: Test C postemergence; assay type: in vivo, Ipomoea coccinea
Procedure, shortened: as §2

velvetleaf [9] = assay: Test C postemergence; assay type: in vivo, Abutilon theophrasti
Procedure, shortened: as §2

[10] = 125 g ai/ha, 0 to 100 scale, 0 no effect, 100 complete control
[11] = 500 g ai/ha, 0 to 100 scale where 0 is no effect and 100 is complete control
[12] = 31 g ai/ha, postemergence, visual rating, scale 0 to 100 (0 no effect, 100 complete control), 13 to 15 days

N#Cc1cccc(Oc2ncc(Cl)cn2)c1-n1cc(OCC(F)(F)F)cn1 [Compound 274, 3-[(5-chloro-2-pyrimidinyl)oxy]-2-[4-(2,2,2-trifluoroethoxy)-1H-pyrazol-1-yl]benzonitrile]
Pigweed plant response rating (0 to 100 scale) (pigweed [1]; 125 g ai/ha): 100
pest or weed control at 500 g/ha (pigweed [1]; Amaranthus retroflexus, pre-emergence, 240 h, 500 g ai/ha, 0 to 100 scale where 0 is no effect and 100 is complete control, read-out: Pigweed plant response rating): 100%
Velvetleaf plant response rating (0 to 100 scale) (velvetleaf [2]; 125 g ai/ha): 100
pest or weed control at 500 g/ha (velvetleaf [2]; Abutilon theophrasti, pre-emergence, 240 h, 500 g ai/ha, 0 to 100 scale where 0 is no effect and 100 is complete control, read-out: Velvetleaf plant response rating): 100%
plant injury at 125 g/ha (wheat; [10]): 70%
plant injury at 500 g/ha (wheat; [11]): 80%
pest or weed control at 16 g/ha (wild oat; 16 g ai/ha, postemergence, 0 is no effect, 100 is complete control, read-out: Plant response rating (0 to 100), Oat, Wild): 30%
pest or weed control at 125 g/ha (wild oat; 125 g ai/ha, postemergence, visual rating, scale 0 to 100 (0 no effect, 100 complete control), read-out: Plant response rating, Oat, Wild): 30%
pest or weed control at 62 g/ha (wild oat; Postemergence, 62 g ai/ha, scale 0 to 100 (0 no effect, 100 complete control), 13 to 15 days, read-out: Plant response rating, Oat, Wild): 35%
pest or weed control at 250 g/ha (Heteranthera limosa): 95%
pest or weed control at 16 g/ha (blackgrass; 16 g ai/ha, postemergence, 0 is no effect, 100 is complete control, read-out: Plant response rating (0 to 100), Blackgrass): 5%
pest or weed control at 31 g/ha (blackgrass; 31 g ai/ha, postemergence, visual rating, scale 0 to 100 (0 no effect, 100 complete control), 13 to 15 days, read-out: Blackgrass plant response rating): 5%
pest or weed control at 125 g/ha (blackgrass; 125 g ai/ha, postemergence, visual rating, scale 0 to 100 (0 no effect, 100 complete control), read-out: Plant response rating, Blackgrass): 20%
pest or weed control at 62 g/ha (blackgrass; Postemergence, 62 g ai/ha, scale 0 to 100 (0 no effect, 100 complete control), 13 to 15 days, read-out: Plant response rating, Blackgrass): 15%
Pigweed plant response rating (pigweed [3]; [12]): 85
pest or weed control at 16 g/ha (pigweed [3]; Amaranthus retroflexus, post-emergence, 16 g ai/ha, postemergence, 0 is no effect, 100 is complete control, read-out: Plant response rating (0 to 100), Pigweed): 95%
pest or weed control at 125 g/ha (pigweed [3]; Amaranthus retroflexus, post-emergence, 125 g ai/ha, postemergence, visual rating, scale 0 to 100 (0 no effect, 100 complete control), read-out: Plant response rating, Pigweed): 98%
pest or weed control at 62 g/ha (pigweed [3]; Amaranthus retroflexus, post-emergence, Postemergence, 62 g ai/ha, scale 0 to 100 (0 no effect, 100 complete control), 13 to 15 days, read-out: Plant response rating, Pigweed): 90%
pest or weed control at 16 g/ha (barnyardgrass [4]; 16 g ai/ha, postemergence, 0 is no effect, 100 is complete control, read-out: Plant response rating (0 to 100), Barnyardgrass): 5%
pest or weed control at 31 g/ha (barnyardgrass [4]; 31 g ai/ha, postemergence, visual rating, scale 0 to 100 (0 no effect, 100 complete control), 13 to 15 days, read-out: Barnyardgrass plant response rating): 10%
pest or weed control at 125 g/ha (barnyardgrass [4]; 125 g ai/ha, postemergence, visual rating, scale 0 to 100 (0 no effect, 100 complete control), read-out: Plant response rating, Barnyardgrass): 15%
pest or weed control at 62 g/ha (barnyardgrass [4]; Postemergence, 62 g ai/ha, scale 0 to 100 (0 no effect, 100 complete control), 13 to 15 days, read-out: Plant response rating, Barnyardgrass): 10%
Ragweed plant response rating (ragweed; [12]): 60
pest or weed control at 16 g/ha (ragweed; Ambrosia artemisiifolia, post-emergence, 16 g ai/ha, postemergence, 0 is no effect, 100 is complete control, read-out: Plant response rating (0 to 100), Ragweed): 50%
pest or weed control at 125 g/ha (ragweed; Ambrosia artemisiifolia, post-emergence, 125 g ai/ha, postemergence, visual rating, scale 0 to 100 (0 no effect, 100 complete control), read-out: Plant response rating, Ragweed): 75%
pest or weed control at 62 g/ha (ragweed; Ambrosia artemisiifolia, post-emergence, Postemergence, 62 g ai/ha, scale 0 to 100 (0 no effect, 100 complete control), 13 to 15 days, read-out: Plant response rating, Ragweed): 40%
Morningglory plant response rating (0 to 100 scale) (morningglory [5]; 125 g ai/ha): 100
pest or weed control at 500 g/ha (morningglory [5]; Ipomoea, pre-emergence, 240 h, 500 g ai/ha, 0 to 100 scale where 0 is no effect and 100 is complete control, read-out: Morningglory plant response rating): 100%
pest or weed control at 16 g/ha (kochia; 16 g ai/ha, postemergence, 0 is no effect, 100 is complete control, read-out: Plant response rating (0 to 100), Kochia): 85%
pest or weed control at 31 g/ha (kochia; 31 g ai/ha, postemergence, visual rating, scale 0 to 100 (0 no effect, 100 complete control), 13 to 15 days, read-out: Kochia plant response rating): 90%
pest or weed control at 125 g/ha (kochia; 125 g ai/ha, postemergence, visual rating, scale 0 to 100 (0 no effect, 100 complete control), read-out: Plant response rating, Kochia): 100%
pest or weed control at 62 g/ha (kochia; Postemergence, 62 g ai/ha, scale 0 to 100 (0 no effect, 100 complete control), 13 to 15 days, read-out: Plant response rating, Kochia): 100%
pest or weed control at 125 g/ha (morningglory [6]; [10]): 90%
pest or weed control at 500 g/ha (morningglory [6]; [11]): 100%
Barnyardgrass plant response rating (0 to 100 scale, 0 is no effect, 100 is complete control) (barnyardgrass [7]; 125 g ai/ha): 90
pest or weed control at 500 g/ha (barnyardgrass [7]; Echinochloa crus-galli, pre-emergence, 240 h, 500 g ai/ha, 0 to 100 scale where 0 is no effect and 100 is complete control, read-out: Barnyardgrass plant response rating): 100%
Morningglory plant response rating (morningglory [8]; [12]): 85
pest or weed control at 16 g/ha (morningglory [8]; Ipomoea, post-emergence, 16 g ai/ha, postemergence, 0 is no effect, 100 is complete control, read-out: Plant response rating (0 to 100), Morningglory): 85%
pest or weed control at 125 g/ha (morningglory [8]; Ipomoea, post-emergence, 125 g ai/ha, postemergence, visual rating, scale 0 to 100 (0 no effect, 100 complete control), read-out: Plant response rating, Morningglory): 95%
pest or weed control at 62 g/ha (morningglory [8]; Ipomoea, post-emergence, Postemergence, 62 g ai/ha, scale 0 to 100 (0 no effect, 100 complete control), 13 to 15 days, read-out: Plant response rating, Morningglory): 95%
Velvetleaf plant response rating (velvetleaf [9]; [12]): 50
pest or weed control at 16 g/ha (velvetleaf [9]; Abutilon theophrasti, post-emergence, 16 g ai/ha, postemergence, 0 is no effect, 100 is complete control, read-out: Plant response rating (0 to 100), Velvetleaf): 30%
pest or weed control at 125 g/ha (velvetleaf [9]; Abutilon theophrasti, post-emergence, 125 g ai/ha, postemergence, visual rating, scale 0 to 100 (0 no effect, 100 complete control), read-out: Plant response rating, Velvetleaf): 75%
pest or weed control at 62 g/ha (velvetleaf [9]; Abutilon theophrasti, post-emergence, Postemergence, 62 g ai/ha, scale 0 to 100 (0 no effect, 100 complete control), 13 to 15 days, read-out: Plant response rating, Velvetleaf): 65%
